Results as given in US10759777B2, “Carbazole-containing amides, carbamates, and ureas as cryptochrome modulators” (Synchronicity Pharma, Inc., priority 2014, dated 2020).

Tested on: C57/Bl6J DIO mice
Test: Increasing dosages of Compound 72 in diet-induced obesity (DIO) mouse model
Assay type: in vivo
Conditions: 10, 30, 100 mg/kg PO QD 7 days
From the text: Male C57/Bl6J DIO mice were obtained from The Jackson Laboratory (Sacramento, Calif.). […] Animals were accustomed to these conditions for at least 2 weeks before experimentation and used at approximately 24 weeks of age.
Significance was accepted when p<0.05.
Male C57/Bl6J DIO mice were obtained from The Jackson Laboratory (Sacramento, Calif.). […] Animals were accustomed to these conditions for at least 2 weeks before experimentation and used at approximately 26 weeks of age.

Structure (SMILES): O=C1NCCN1CC(O)Cn1c2ccc(F)cc2c2cc(F)ccc21 (stereo not shown) [Compound 72, 1-(3-(3,6-difluoro-9H-carbazol-9-yl)-2-hydroxypropyl)imidazolidin-2-one]
- OGTT glucose excursion following a glucose load: reduction in glucose excursion
